Target: OXA-58 (Acinetobacter baumannii, UniProt Q2TR58)
Test: time-resolved X-ray crystallography of the acyl-enzyme complex
Type: biochemical
Conditions: read-out: Ki

OXA-58, sequence (Q2TR58 19-280): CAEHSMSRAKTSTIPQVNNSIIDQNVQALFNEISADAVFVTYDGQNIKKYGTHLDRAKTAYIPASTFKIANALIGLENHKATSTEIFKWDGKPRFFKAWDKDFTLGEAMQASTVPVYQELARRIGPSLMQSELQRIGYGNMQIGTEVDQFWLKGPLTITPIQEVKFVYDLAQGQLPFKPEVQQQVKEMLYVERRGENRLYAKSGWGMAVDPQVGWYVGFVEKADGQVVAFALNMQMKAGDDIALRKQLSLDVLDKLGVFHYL

SMILES: CC(O)[C@H]1C(=O)N2C(C(=O)O)=C(S[C@H]3CNC(C(=O)N(C)C)C3)C[C@]12C (stereo partly shown) [NA-1-157, NA-1–157]
- KI (inactivation): 1900 ± 300 nM

Reference: article PMC11972452 (ACS infectious diseases, 2024)
